Data published in patent publication US12577248B2, “Substituted [1,2,4]triazolo[1,5-a]pyrazines as spleen tyrosine kinase inhibitors” (NANJING RUIJIE PHARMA CO., LTD., priority 2020, dated 2026).

Legend:
Ba/F3-TEL-SYK cells = biological target: T1, Ba/F3-TEL-SYK cells (Homo sapiens, UniProt P43405); assay: Ba/F3-TEL-SYK cell-based assay (CellTiter-Glo proliferation); conditions: 72 hr, read-out: BaF3 Cell assay IC50
T1 construct: fused on or other part: N-terminal part of TEL (ETV6) with its oligomerising PNT/SAM domain, fused before the SYK part that carries the kinase domain; P41212 (Transcription factor ETV6)
Description: CellTiter-Glo® Luminescent Cell Viability Assay was used to determine the number of viable cells in culture based on quantitation of the ATP present, as an indicator of metabolically active cells. The assay was performed in the following steps: First, the testing compounds were dissolved in DMSO to make a stock solution. The stocks (10 mM) were then diluted to varying concentrations: […], 0.305 and 0.102 μM. An aliquot of 0.2 μl of diluted compounds were added to the 384 well assay plate. Second, added 40 μl of cell suspension with 800 Ba/F3-TEL-SYK cells into each well and incubated the plate at 37° C., 5% CO2 for 72 hr. Then, added 20 μl Cell Titer-Glo Reagent into each well of the cell culture plate. Mixed the contents for 2 min on an orbital shaker to lyse cells, and rest the plate at room temperature for 30 min. Finally, luminescence values were obtained using an Envision 2104 plate reader (PerkinElmer) and calculated the average data and Standard Deviation (SD) of DMSO and Reference (GS-9973, 1 μM) as high control and low control. To determine the IC50 value, fit the data using non-linear regression equation.

SYK kinase = SYK kinase (Homo sapiens, UniProt P43405); assay: SYK kinase assay (HTRF KinEASE-TK); assay type: biochemical; conditions: class symbols, read-out: Syk inhibition IC50
Description: A homogeneous time-resolved fluorescence (HTRF) assay was performed to assess the potential inhibitory effect of compounds on SYK kinase. The HTRF KinEASE-TK kit (Cisbio) was used. During the step, kinase will phosphorylate the substrate, and the resulting fluorescence signal is proportional to the phosphorylation level. The assay was performed in the following steps: First, the testing compounds were diluted 1:3 in succession in DMSO. The 1× kinase buffer contained 1 volume of 5× enzymatic buffer with 4 volumes of distilled water, 5 mM MgCl2, 1 mM MnCl2, and 1 mM DTT. The assays were assembled in 384 well plates (784075, Greiner) where 10 nl of compound solutions were added into each well, and the plates were centrifuged at 1000 g for 1 min. Then, 5 μl of 2×SYK in 1× kinase buffer were added to each well. The plates were centrifuged at 1000 g for 30 s and then incubated at room temperature for 10 min. The reaction was initiated by adding […] of premixed 2×TK-substrate-biotin and ATP mixture in 1× kinase buffer to the assay plates. The plates were centrifuged at 1000 g for 30 s and incubated at room temperature for 30 min. Phosphorylation was detected by adding 5 μl of 4×Sa-XL 665 in HTRF detection buffer into each well of the assay plates. The plates were centrifuged plates at 1000 g for 30 sec, and then incubated at room temperature for 1 h. Finally, the plates were read on an Envision 2104 plate reader (PerkinElmer) and the fluorescence signal was measured at 615 nm (Cryptate) and 665 nm (XL665).
A ratio (665/615 nm) was calculated for each well. The inhibition ratio was calculated as follow: […]
IC50 was calculated by fitting % Inhibition values and log of compound concentrations to nonlinear regression (dose response−variable slope) with GraphPad 6.0.

Structure (SMILES)	GI50 (Ba/F3-TEL-SYK cells)	IC50 (SYK kinase)
CCN1CCN(c2ccc(Nc3nc(-c4ccc5cn[nH]c5c4)cn4ncnc34)cc2OC)CC1 [I16, N-(4-(4-ethylpiperazin-1-yl)-3-methoxyphenyl)-6-(1H-indazol-6-yl)-[1,2,4]triazolo[1,5-a]pyrazin-8-amine]	≤ 50 nM	≤ 50 nM
COc1cc(Nc2nc(-c3ccc4cn[nH]c4c3)cn3ncnc23)ccc1N1CCN(C(C)C)CC1 [I17, 6-(1H-indazol-6-yl)-N-(4-(4-isopropylpiperazin-1-yl)-3-methoxyphenyl)-[1,2,4]triazolo[1,5-a]pyrazin-8-amine]	50 to 500 nM	≤ 50 nM
COCCN1CCN(c2ccc(Nc3nc(-c4ccc5cn[nH]c5c4)cn4ncnc34)cc2OC)CC1 [I18, 6-(1H-indazol-6-yl)-N-(3-methoxy-4-(4-(2-methoxyethyl)piperazin-1-yl)phenyl)-[1,2,4]triazolo[1,5-a]pyrazin-8-amine]	≤ 50 nM	≤ 50 nM
FC(F)Oc1cc(Nc2nc(-c3ccc4cn[nH]c4c3)cn3ncnc23)ccc1N1CCOCC1 [I21, N-(3-(difluoromethoxy)-4-morpholinophenyl)-6-(1H-indazol-6-yl)-[1,2,4]triazolo[1,5-a]pyrazin-8-amine]	50 to 500 nM	≤ 50 nM
CC1(O)CCN(c2ccc(Nc3nc(-c4ccc5cn[nH]c5c4)cn4ncnc34)cc2)CC1 [I23, 1-(4-((6-(1H-indazol-6-yl)-[1,2,4]triazolo[1,5-a]pyrazin-8-yl)amino)phenyl)-4-methylpiperidin-4-ol]	50 to 500 nM	≤ 50 nM
COc1cc(Nc2nc(-c3ccc4cn[nH]c4c3)cn3ncnc23)ccc1N1CCS(=O)(=O)CC1 [I24, 4-(4-((6-(1H-indazol-6-yl)-[1,2,4]triazolo[1,5-a]pyrazin-8-yl)amino)-2-methoxyphenyl)thiomorpholine 1,1-dioxide]	≤ 50 nM	≤ 50 nM
O=S1(=O)CCN(c2ccc(Nc3nc(-c4ccc5cn[nH]c5c4)cn4ncnc34)cc2)CC1 [I25, 4-(4-((6-(1H-indazol-6-yl)-[1,2,4]triazolo[1,5-a]pyrazin-8-yl)amino)phenyl)thiomorpholine 1,1-dioxide]	50 to 500 nM	≤ 50 nM
COc1cc(Nc2nc(-c3ccc4c(c3)OC(C)(C)C(=O)N4)cn3ncnc23)ccc1N1CCOCC1 [I26, 7-(8-((3-methoxy-4-morpholinophenyl)amino)-[1,2,4]triazolo[1,5-a]pyrazin-6-yl)-2,2-dimethyl-2H-benzo[b][1,4]oxazin-3(4H)-one]	50 to 500 nM	50 to 500 nM
COc1cc(Nc2nc(-c3ccc4c(c3)OCC(=O)N4)cn3ncnc23)ccc1N1CCOCC1 [I28, 7-(8-((3-methoxy-4-morpholinophenyl)amino)-[1,2,4]triazolo[1,5-a]pyrazin-6-yl)-2H-benzo[b][1,4]oxazin-3(4H)-one]	50 to 500 nM	≤ 50 nM
O=C1COc2cc(-c3cn4ncnc4c(Nc4ccc(N5CCOCC5)cc4)n3)ccc2N1 [I29, 7-(8-((4-morpholinophenyl)amino)-[1,2,4]triazolo[1,5-a]pyrazin-6-yl)-2H-benzo[b][1,4]oxazin-3(4H)-one]	50 to 500 nM	≤ 50 nM
Nc1cncc(-c2cn3ncnc3c(Nc3ccc(N4CCN(C5COC5)CC4)cc3)n2)n1 [I55, 6-(6-aminopyrazin-2-yl)-N-(4-(4-(oxetan-3-yl)piperazin-1-yl)phenyl)-[1,2,4]triazolo[1,5-a]pyrazin-8-amine]	500 to 5000 nM	≤ 50 nM
COc1cc(Nc2nc(-c3cncc(N)n3)cn3ncnc23)ccc1N1CCN(C2COC2)CC1 [I56, 6-(6-aminopyrazin-2-yl)-N-(3-methoxy-4-(4-(oxetan-3-yl)piperazin-1-yl)phenyl)-[1,2,4]triazolo[1,5-a]pyrazin-8-amine]	500 to 5000 nM	50 to 500 nM
c1nc2c(Nc3ccc(N4CC5(COC5)C4)cc3)nc(-c3ccc4cn[nH]c4c3)cn2n1 [I59, N-(4-(2-oxa-6-azaspiro[3.3]heptan-6-yl)phenyl)-6-(1H-indazol-6-yl)-[1,2,4]triazolo[1,5-a]pyrazin-8-amine]	50 to 500 nM	50 to 500 nM
COc1cc(Nc2nc(-c3ccc4cn[nH]c4c3)cn3ncnc23)ccc1N1CC2(COC2)C1 [I60, 6-(1H-indazol-6-yl)-N-(3-methoxy-4-(2-oxa-6-azaspiro[3.3]heptan-6-yl)phenyl)-[1,2,4]triazolo[1,5-a]pyrazin-8-amine]	50 to 500 nM	50 to 500 nM
c1nc2c(Nc3ccc(N4CC5(COC5)C4)cc3)nc(-c3ccc4cc[nH]c4c3)cn2n1 [I61, N-(4-(2-oxa-6-azaspiro[3.3]heptan-6-yl)phenyl)-6-(1H-indol-6-yl)-[1,2,4]triazolo[1,5-a]pyrazin-8-amine]	50 to 500 nM	≤ 50 nM
COc1cc(Nc2nc(-c3ccc4c(c3)N=CC4)cn3ncnc23)ccc1N1CC2(COC2)C1 [I62, 6-(3H-indol-6-yl)-N-(3-methoxy-4-(2-oxa-6-azaspiro[3.3]heptan-6-yl)phenyl)-[1,2,4]triazolo[1,5-a]pyrazin-8-amine]	50 to 500 nM	≤ 50 nM
CC(C)N1C[C@@H]2C[C@@H]1CN2c1ccc(Nc2nc(-c3ccc4[nH]ncc4c3)cn3ncnc23)cc1 [I69, 6-(1H-indazol-5-yl)-N-(4-((1S,4R)-5-isopropyl-2,5-diazabicyclo[2.2.1]heptan-2-yl)phenyl)-[1,2,4]triazolo[1,5-a]pyrazin-8-amine]	500 to 5000 nM	50 to 500 nM
CC(C)N1C[C@@H]2C[C@@H]1CN2c1ccc(Nc2nc(-c3ccc4[nH]ccc4c3)cn3ncnc23)cc1 [I70, 6-(1H-indol-5-yl)-N-(4-((1S,4R)-5-isopropyl-2,5-diazabicyclo[2.2.1]heptan-2-yl)phenyl)-[1,2,4]triazolo[1,5-a]pyrazin-8-amine]	500 to 5000 nM	50 to 500 nM
CCOc1cc(Nc2nc(-c3ccc4cn[nH]c4c3)cn3ncnc23)ccc1N1CCOCC1 [I73, N-(3-ethoxy-4-morpholinophenyl)-6-(1H-indazol-6-yl)-[1,2,4]triazolo[1,5-a]pyrazin-8-amine]	50 to 500 nM	≤ 50 nM
CC(C)Oc1cc(Nc2nc(-c3ccc4cn[nH]c4c3)cn3ncnc23)ccc1N1CCOCC1 [I75, 6-(1H-indazol-6-yl)-N-(3-isopropoxy-4-morpholinophenyl)-[1,2,4]triazolo[1,5-a]pyrazin-8-amine]	500 to 5000 nM	50 to 500 nM
COc1cc(Nc2nc(-c3ccc4cc[nH]c4c3)cn3ncnc23)ccc1N1CC2CC1CN2C1COC1 (stereo not drawn) [I76, 6-(1H-indol-6-yl)-N-(3-methoxy-4-(5-(oxetan-3-yl)-2,5-diazabicyclo[2.2.1]heptan-2-yl)phenyl)-[1,2,4]triazolo[1,5-a]pyrazin-8-amine]	50 to 500 nM	≤ 50 nM
FC(F)(F)Oc1cc(Nc2nc(-c3ccc4cc[nH]c4c3)cn3ncnc23)ccc1N1CC2CC1CN2C1COC1 (stereo not drawn) [I77, 6-(1H-indol-6-yl)-N-(4-(5-(oxetan-3-yl)-2,5-diazabicyclo[2.2.1]heptan-2-yl)-3-(trifluoromethoxy)phenyl)-[1,2,4]triazolo[1,5-a]pyrazin-8-amine]	> 5000 nM	50 to 500 nM
FC(F)Oc1cc(Nc2nc(-c3ccc4cc[nH]c4c3)cn3ncnc23)ccc1N1CC2CC1CN2C1COC1 (stereo not drawn) [I78, N-(3-(difluoromethoxy)-4-(5-(oxetan-3-yl)-2,5-diazabicyclo[2.2.1]heptan-2-yl)phenyl)-6-(1H-indol-6-yl)-[1,2,4]triazolo[1,5-a]pyrazin-8-amine]	500 to 5000 nM	≤ 50 nM
CCOc1cc(Nc2nc(-c3ccc4cc[nH]c4c3)cn3ncnc23)ccc1N1CC2CC1CN2C1COC1 (stereo not drawn) [I79, N-(3-ethoxy-4-(5-(oxetan-3-yl)-2,5-diazabicyclo[2.2.1]heptan-2-yl)phenyl)-6-(1H-indol-6-yl)-[1,2,4]triazolo[1,5-a]pyrazin-8-amine]	50 to 500 nM	≤ 50 nM
